The results in this text go back to ChEMBL document CHEMBL1152974, “Ionic interactions for substituted MCH1R inhibitors studied by pK(a) values” (Bioorg Med Chem Lett, 2009).

Each structure is given as a SMILES string.

The nature of series [1]: Association constant, pKa for quinoline nitrogen. In kind it is physicochemical.
A short description of series [2]: Association constant, pKa for aliphatic nitrogen. In kind it is physicochemical.

One may read the pKa as the pH at which an ionisable group is half protonated.

As to `CC(=O)Nc1ccc2ncccc2c1`, the pKa in series [1] amounted to 5.51.
`CC(=O)Nc1ccc2nc(C(C)CCN(C)C)ccc2c1` (configuration not stated): the pKa in series [1] was 6.56; in series [2], 11.8.
Turning to `CC(=O)Nc1ccc2nc(SCCN(C)C)ccc2c1`, the pKa worked out at 4.33 in series [1] and 11.6 in series [2].
The matching figures for `CC(=O)Nc1ccc2nc(CCCN(C)C)ccc2c1`: 8.98 and 12.7.
`CC(=O)Nc1ccc2nc(N(C)CCN(C)C)ccc2c1`: the pKa is 9.05 in series [1] and 10.2 in series [2].
As for `CC(=O)Nc1ccc2nc(C(C)(C)CCN(C)C)ccc2c1`, the figures for the pKa in series [1] and in series [2] were 6.22 and 12.4, respectively.
Regarding `CC(=O)Nc1ccc2nc(NCCN(C)C)ccc2c1`, the pKa came out at 12.2 in series [1] and 10.8 in series [2].
As for `CC(=O)Nc1ccc2nc(F)ccc2c1`, the pKa in series [1] is -1.39.
As for `CC(=O)Nc1ccc2nc(N(C)CCO)ccc2c1`, the pKa in series [1] came out at 8.91.
As for `CC(=O)Nc1ccc2nc(OCCN(C)C)ccc2c1`, the pKa was found to be 4.64 in series [1] and 9.94 in series [2].
